According to patent US11116757B2 (priority 2015, dated 2021):

These molecules were tested against DCN1-UBC12 interaction (Homo sapiens (Human), UniProt Q96GG9) (assay: biochemical). Conditions: TR-FRET IC50.
Format: binding

Sequence of DCN1-UBC12 interaction (Q96GG9 60-248 limits assumed): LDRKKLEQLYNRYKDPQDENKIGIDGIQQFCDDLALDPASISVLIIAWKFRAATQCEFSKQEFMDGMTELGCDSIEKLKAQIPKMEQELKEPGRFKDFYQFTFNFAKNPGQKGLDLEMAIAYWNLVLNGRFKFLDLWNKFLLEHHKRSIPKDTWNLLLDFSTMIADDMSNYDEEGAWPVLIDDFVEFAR

With `CCCC(C)N1CCC(N(Cc2ccccc2)C(=O)Nc2cccc(C(C)C)c2)CC1` (stereo not shown) [A33] as the molecule, how does the IC50 read?
Its IC50 is 0.2 µM.

Same assay, conditions: Table 4, commercial compounds; read-out: TR-FRET IC50

For `O=C(Nc1ccc(Cl)cc1Cl)C1CCN(C(=O)c2ccc(F)cc2)CC1` [C15], which IC50 is on record?
Its IC50 is > 67.6 µM.

How did the IC50 turn out when `COc1cc(C(=O)N2CCC(C(=O)Nc3ccc(Cl)cc3)CC2)cc(OC)c1OC` [C23] was run?
The IC50 was > 67.6 µM.

How did the IC50 turn out when `COc1ccc(C(=O)N2CCC(C(=O)Nc3cccc(C)c3C)CC2)cc1` [C19] was run?
Its IC50 is > 67.6 µM.

With `CCOc1ccccc1NC(=O)C1CCN(C(=O)c2ccc(OC)cc2)CC1` [C47] as the molecule, how does the IC50 read?
Its IC50 is > 67.6 µM.

With `O=C(Nc1ccc(F)c(Cl)c1)C1CCN(C(=O)c2ccc(Cl)cc2)CC1` [C66] as the molecule, how does the IC50 read?
The IC50 was > 75.6 µM.

For `CSc1cccc(NC(=O)C2CCN(C(=O)c3cnn(-c4ccccc4)c3-n3cccc3)CC2)c1` [C9], which IC50 is on record?
Its IC50 is > 76.7 µM.

How did the IC50 turn out when `CCC1CN(C(=O)N2CCC(C(=O)Nc3cccc(Cl)c3)CC2)c2ccccc2O1` (stereo not shown) [C55] was run?
Its IC50 is > 67.6 µM.

How did the IC50 turn out when `Cc1ccc(C(=O)N2CCC(C(=O)Nc3ccc(C)c(C)c3)CC2)cc1` [C25] was run?
The IC50 was > 67.6 µM.

Same assay, conditions: Table 6, commercial compounds; read-out: TR-FRET IC50

How did the IC50 turn out when `CC(=O)N1CCN(C(=O)c2cnn(-c3nccc(-c4cccs4)n3)c2C2CC2)CC1` [E24] was run?
The IC50 was 61.6 µM.

How did the IC50 turn out when `COCCN(C)C(=O)c1cnn(-c2nccc(-c3cccs3)n2)c1C` [E52] was run?
Its IC50 is > 67.6 µM.

Same assay, conditions: Table 7, commercial compounds; read-out: TR-FRET IC50

`Cc1nn(C)c2c1C(c1ccc(F)c(F)c1)C(NC(=O)c1ccc(Cl)cc1)C(=O)N2` (stereo not shown) [F26] was tested. Which IC50 did it give?
The IC50 was > 67.6 µM.

For `COc1cccc(C2c3c(C)nn(C)c3NC(=O)C2NC(=O)c2ccc(OC)c(OC)c2)c1` (stereo not shown) [F21], which IC50 is on record?
The IC50 was > 67.6 µM.

How did the IC50 turn out when `CCOc1ccc(C2c3c(C)nn(C)c3NC(=O)C2NC(=O)c2ccc(Cl)cc2)cc1OC` (stereo not shown) [F25] was run?
The IC50 was > 67.6 µM.

Same assay, conditions: read-out: TR-FRET IC50

With `CCCC(C)N1CCC(N(Cc2ccccc2)C(=O)Nc2ccc(OC(F)(F)F)cc2)CC1` (stereo not shown) [A32] as the molecule, how does the IC50 read?
The IC50 was 0.191 µM.

Which IC50 does the source give for `COc1ccc(C(=O)N2CCC(NCc3ccc(C)cc3)CC2)cc1` [A194] here?
Its IC50 is > 10.3 µM.

Which IC50 does the source give for `CN(C)c1ccc(CN2CCC(N(Cc3ccccc3)C(=O)Nc3cc(F)cc(C(F)(F)F)c3)CC2)c2ccccc12` [A204] here?
Its IC50 is > 20.2 µM.

`CCCCN1CCC(CC(=O)OC)(NC(=O)Nc2cccc(C(F)(F)F)c2)CC1` [A254] was tested. Which IC50 did it give?
The IC50 was > 60.1 µM.

Which IC50 does the source give for `Cc1ccc2[nH]c(C3CCN(Cc4cccc(C(F)(F)F)c4)CC3)nc2c1` [B19] here?
The IC50 was < 0.004 µM.

Which IC50 does the source give for `COc1ccc(CN(C(=O)Nc2cc(C)ccc2OC)C2CCN(C(C)=O)CC2)cc1` [B87] here?
The IC50 was > 67.6 µM.

How did the IC50 turn out when `COc1cc(C(=O)N2CCC(c3nc4ccccc4s3)CC2)cc(OC)c1Br` [D1] was run?
The IC50 was 2.31 µM.

Which IC50 does the source give for `O=C(Nc1ccc2c(c1)OCO2)NC1CCN(Cc2ccccc2)CC1` [B22] here?
The IC50 was > 103 µM.

How did the IC50 turn out when `CC(=O)N1CCC(N(Cc2ccco2)C(=O)Nc2cccc(C)c2)CC1` [B72] was run?
The IC50 was > 67.6 µM.

With `O=C(Nc1ccc(CN2CCCC2)cc1)Nc1cccc(C(F)(F)F)c1` [B105] as the molecule, how does the IC50 read?
Its IC50 is > 71.3 µM.

With `CCCC(C)N1CCC(N(Cc2ccccc2)C(=O)Nc2cccc(-c3ccccc3)c2)CC1` (stereo not shown) [A129] as the molecule, how does the IC50 read?
The IC50 was 2.67 µM.

How did the IC50 turn out when `CCOc1ccc(NC(=O)N(Cc2ccco2)C2CCN(CC)CC2)cc1` [B80] was run?
Its IC50 is > 67.6 µM.

Which IC50 does the source give for `CCCC(C)N1CCC(N(Cc2ccccc2)C(=O)Nc2ccccc2OC(F)(F)F)CC1` (stereo not shown) [A191] here?
Its IC50 is 44.9 µM.

For `CCCN1CCC(NC(=O)Nc2ccc(Cl)c(Cl)c2)CC1` [B56], which IC50 is on record?
The IC50 was > 67.6 µM.

How did the IC50 turn out when `O=C(Nc1cccc(C(F)(F)F)c1)N[C@H]1CCN(Cc2ccccc2)C[C@@H]1OC(=O)Nc1cccc(C(F)(F)F)c1` [A249] was run?
The IC50 was > 59.6 µM.

Which IC50 does the source give for `Cc1ccc(CN2CCC(N(Cc3ccccc3)C(=O)Nc3cc(F)cc(C(F)(F)F)c3)CC2)s1` [A227] here?
The IC50 was > 27 µM.

With `O=C(Nc1ccc2c(c1)OC(F)(F)O2)NC1CCN(C(=O)c2ccccc2)CC1` [B114] as the molecule, how does the IC50 read?
Its IC50 is > 74.1 µM.

With `COc1ccc(NC(=O)N(Cc2ccco2)C2CCN(C(C)=O)CC2)cc1` [B70] as the molecule, how does the IC50 read?
The IC50 was > 67.6 µM.

With `CCCC(C)N1CCC(N(Cc2ccccc2)C(=O)Nc2cccc(Cc3ccccc3)c2)CC1` (stereo not shown) [A23] as the molecule, how does the IC50 read?
The IC50 was 0.14 µM.

`O=C(Nc1cccc(SC(F)(F)F)c1)NC1CCN(Cc2ccccc2)CC1` [B8] was tested. Which IC50 did it give?
The IC50 was 16.6 µM.

For `CCCC(C)N1CCC(N(Cc2ccccc2)C(=O)Nc2c(C)cccc2C)CC1` (stereo not shown) [A259], which IC50 is on record?
The IC50 was > 62.4 µM.

How did the IC50 turn out when `CCCN1CCC(NC(=O)Nc2ccccc2Cl)CC1` [B51] was run?
Its IC50 is > 67.6 µM.

How did the IC50 turn out when “1-(1-((1H-Imidazol-4-yl)Methyl)Piperidin-4-yl)-1-Benzyl-3-(3-(Trifluoromethyl)Phenyl)Urea [A184]” was run?
Its IC50 is 29 µM.
